Source: patent publication EP2488529B1, “Spirocyclic derivatives as histone deacetylase inhibitors” (DAC S.r.l., priority 2009, dated 2011)
pIC50: −log10 of the molar value. Where two headings read alike, the source gives them in different places.

Tests used:
HDAC = test: Assay of enzyme inhibition of HDAC (BIOMOL kit, fluorescence); format: biochemical; details: nuclear fraction of Hela cells; substrate 200 µM; 15 min at RT
Procedure: The in-vitro activity of HDAC inhibitors was assayed using a BIOMOL Kit, according to the instructions from the manufacturer (Biomolecular Research Laborator). 15 µl of 30 x diluted nuclear fraction of Hela cells, was diluted to 50 µl with the assay buffer containing the HDAC inhibitor and the substrate (lysine with acetylated amino group on the side chain) at a concentration of 200 µM. The samples were incubated for 15 min at RT and then exposed to a developer (10 min at RT). In this last step a fluorophore was produced, whose fluorescence was measured using an excitation wavelength of 355 nm and an emission at 460 nm. The IC50 was calculated using GraphPad Software.

A549 = test: Cell growth, CellTiter-Glo Luminescent Cell Viability Assay (antiproliferative assay); format: cell-based; details: A549 cells, incubated for 72 h
Description: (§1) CellTiter-Glo® Luminescent Cell Viability Assay (Promega) is a homogeneous method of determining the number of viable cells in culture based on quantitation of the present ATP, which indicates the presence of metabolically active cells. The homogeneous assay procedure involves addition of a single reagent (CellTiter-Glo® Reagent) directly to the cells, which leads to cell lysis and generation of a luminescent signal proportional to the amount of the ATP and the number of cells present in culture. The assay relies on the properties of a proprietary thermostable luciferase (Ultra-Glo® recombinant luciferase), which generates a luminescent signal. K562, A549, and HCT-116 cells, in exponential growth, were incubated for 72 h with different concentrations of the inhibitors. After 72 h, a volume of CellTiter-Glo® Reagent equal to the volume of cell culture medium was added. The content was mixed for 2 min to induce cell lysis. The luminescence was recorded after further 10 min at RT in order to obtain a stable luminescent signal.
(§2) The IC50 was calculated using GraphPad Software.

HCT-116 = test: as above; format: cell-based; details: HCT-116 cells, incubated for 72 h, read-out: HCT116 IC50
Description: as §1, §2

K562 = test: as above; format: cell-based; details: K562 cells, incubated for 72 h
Description: as §1, §2

Row | SMILES | pIC50 (HDAC) | pIC50 (A549) | pIC50 (HCT-116) | pIC50 (K562) | pIC50 (A549; Homo sapiens) | pIC50 (HCT-116; Homo sapiens) | pIC50 (K562; Homo sapiens)
1 | O=C(/C=C/c1ccc2c(c1)C(=O)CC1(CCN(Cc3ccccc3)C1)O2)NO (single isomer, unassigned; (+)) [Example 4, (+)-(E)-3-[1'-Benzyl-4-oxo-spiro(chromane-2,3'-pyrrolidine)-6-yl]-N-hydroxy-acrylamide] | ≥ 7.00 | ≥ 6.00 | ≥ 6.00 | ≥ 6.00 | – | – | –
2 | O=C(/C=C/c1ccc2c(c1)C(=O)CC1(CCCN(Cc3ccccc3)C1)O2)NO (single isomer, unassigned; (+)) [Example 18, (+)-(E)-3-[1'-Benzyl-4-oxo-spiro(chrormane-2,3'-piperidine)-6-yl]-N-hydroxy-acrylamide] | 6.00 to 7.00 | – | – | – | 5.52 to 6.00 | ≥ 6.00 | ≥ 6.00
3 | O=C(/C=C/c1ccc2c(c1)C(=O)CC1(CCN(Cc3ccccc3)C1)O2)NO (single isomer, unassigned; (-)) [Example 3, (-)-(E)-3-[1 '-Benzyl-4-oxo-spiro(chromane-2,3'-pyrrolidine)-6-yl]-N-hydroxy-acrylamide] | ≥ 7.00 | – | – | – | ≥ 6.00 | ≥ 6.00 | ≥ 6.00
4 | O=C(/C=C/c1ccc2c(c1)C(=O)CC1(CCCN(Cc3ccccc3)C1)O2)NO (single isomer, unassigned; (-)) [Example 17, (-)-(E)-3-[1'-Benzyl-4-oxo-spiro(chromane-2,3'-piperidine)-6-yl]-N-hydroxy-acrylamide] | ≥ 7.00 | – | – | – | 5.52 to 6.00 | ≥ 6.00 | ≥ 6.00
5 | O=C(/C=C/c1ccc2c(c1)C(=O)CC1(CNC1)O2)NO [Example 30, (E)-3-[4-Oxo-spiro(chromane-2,3'-azetidine)-6-yl]-N-hydroxy-acrylamide] | 6.00 to 7.00 | – | – | – | ≤ 5.52 | ≤ 5.52 | 5.52 to 6.00
6 | O=C(/C=C/c1ccc2c(c1)C(=O)CC1(CN(Cc3ccccc3)C1)O2)NO [Example 31, (E)-3-[1'-Benzyl-4-oxo-spiro(chromane-2,3'-azetidine)-6-yl]-N-hydroxy-acrylamide] | ≥ 7.00 | – | – | – | ≥ 6.00 | ≥ 6.00 | ≥ 6.00
7 | O=C(/C=C/c1ccc2c(c1)C(=O)CC1(CN(CCc3ccccc3)C1)O2)NO [Example 32, (E)-3-[1'-(2-Phenyl-ethyl)-4-oxo-spiro(chromane-2,3'-azetidine)-6-yl]-N-hydroxy-acrylamide] | 6.00 to 7.00 | – | – | – | ≥ 6.00 | ≥ 6.00 | ≥ 6.00
8 | O=C(/C=C/c1ccc2c(c1)C(=O)CC1(CN(Cc3ccc(F)cc3)C1)O2)NO [Example 33, (E)-3-[1'-(4-Fluoro-benzyl)-4-oxo-spiro(chromane-2,3'-azetidine)-6-yl]-N-hydroxy-acrylamide] | 6.00 to 7.00 | – | – | – | ≥ 6.00 | ≥ 6.00 | ≥ 6.00
9 | CN1CC2(CC(=O)c3cc(/C=C/C(=O)NO)ccc3O2)C1 [Example 34, (E)-3-[1'-Methyl-4-oxo-spiro(chromane-2,3'-azetidine)-6-yl]-N-hydroxy-acrylamide] | 6.00 to 7.00 | – | – | – | ≥ 6.00 | ≥ 6.00 | ≥ 6.00
10 | O=C(/C=C/c1ccc2c(c1)C(=O)CC1(CN(CCc3ccc(F)cc3)C1)O2)NO [Example 35, (E)-3-{1'-[2-(4-Fluoro-phenyl)-ethyl]-4-oxo-spiro(chromane-2,3'-azetidine)-6-yl}-N-hydroxy-acrylamide] | 6.00 to 7.00 | – | – | – | 5.52 to 6.00 | ≥ 6.00 | ≥ 6.00
11 | CC(=O)N1CC2(CC(=O)c3cc(/C=C/C(=O)NO)ccc3O2)C1 [Example 36, (E)-3-[1'-Acetyl-4-oxo-spiro(chromane-2,3'-azetidine)-6-yl]-N-hydroxy-acrylamide] | 6.00 to 7.00 | – | – | – | ≤ 5.52 | ≤ 5.52 | ≤ 5.52
12 | O=C(/C=C/c1ccc2c(c1)C(=O)CC1(CN(C(=O)c3ccccc3)C1)O2)NO [Example 37, (E)-3-[1'-Benzoyl-4-oxo-spiro(chromane-2,3'-azetidine)-6-yl]-N-hydroxy-acrylamide] | ≥ 7.00 | – | – | – | 5.52 to 6.00 | ≥ 6.00 | ≥ 6.00
13 | CCOC(=O)N1CC2(CC(=O)c3cc(/C=C/C(=O)NO)ccc3O2)C1 [Example 38, (E)-3-[1'-Ethyloxycarbonyl-4-oxo-spiro(chromane-2,3'-azetidine)-6-yl]-N-hydroxy-acrylamide] | 6.00 to 7.00 | – | – | – | ≤ 5.52 | 5.52 to 6.00 | 5.52 to 6.00
14 | Cn1cc(CN2CC3(CC(=O)c4cc(/C=C/C(=O)NO)ccc4O3)C2)c2ccccc21 [Example 44, (E)-3-[1'-(1-Methyl-1H-indol-3-ylmethyl)-4-oxo-spiro(chromane-2,3'-azetidine)-6-yl]-N-hydroxy-acrylamide] | ≥ 7.00 | – | – | – | ≥ 6.00 | ≥ 6.00 | ≥ 6.00
15 | O=C(/C=C/c1cc(F)c2c(c1)C(=O)CC1(CCN(Cc3ccccc3)CC1)O2)NO [Example 51, (E)-3-(1'-Benzyl-8-fluoro-4-oxospiro[chroman-2,4'-piperidine]-6-yl)-N-hydroxy-acrylamide] | 6.00 to 7.00 | – | – | – | 5.52 to 6.00 | ≥ 6.00 | ≥ 6.00
16 | Cc1cc(/C=C/C(=O)NO)cc2c1OC1(CCN(Cc3ccccc3)CC1)CC2=O [Example 52, (E)-3-(1'-Benzyl-8-methyl-4-oxospiro[chroman-2,4'-piperidine]-6-yl)-N-hydroxy-acrylamide] | 6.00 to 7.00 | – | – | – | 5.52 to 6.00 | ≥ 6.00 | ≥ 6.00
17 | CON=C1CC2(CCCN(Cc3ccc(F)cc3)C2)Oc2ccc(/C=C/C(=O)NO)cc21 (stereo not shown) [Example 53, (E)-3-(1'-(4-Fluorobenzyl)-4-(methoxyimino)spiro[chroman-2,3'-piperidine]-6-yl)-N-hydroxyacrylamide] | ≤ 6.00 | – | – | – | ≤ 5.52 | 5.52 to 6.00 | 5.52 to 6.00
18 | O=C(/C=C/c1ccc2c(c1)C(=NO)CC1(CCCN(C3CCCC3)C1)O2)NO (stereo not shown) [Example 54, (E)-3-(1'-Cyclopentyl-4-(hydroxyimino)spiro[chroman-2,3'-piperidine]-6-yl)-N-hydroxyacrylamide] | ≥ 7.00 | – | – | – | ≥ 6.00 | ≥ 6.00 | ≥ 6.00
19 | O=C(/C=C/c1ccc2c(c1)C(=NOCc1ccccc1)CC1(CCCN(CCc3ccccc3)C1)O2)NO (stereo not shown) [Example 55, (E)-3-(4-(Benzyloxyimino)-1'-phenethylspiro[chroman-2,3'-piperidine]-6-yl)-N-hydroxyacrylamide] | ≤ 6.00 | – | – | – | 5.52 to 6.00 | ≥ 6.00 | ≥ 6.00
